Source: patent US4818761A, “2-(4-pyridylaminomethyl)-benzimidazole derivatives having antiviral activity” (priority 1986, dated 1989)
Values after ≈ are worked out from the molar mass of the structure shown.

Legend:
[1] = test system: coxsackievirus type B4 (CB4); assay: Inhibition of CB4 plaque formation in LLC-MK2 cells; format: cell-based; conditions: for CI CB4 (C)/(A): CI = CD50 (LLC-MK2)/IC50 (plaque); for IC50: Coxsackievirus, plaque reduction, LLC-MK2 cells, 37° C.
[2] = test system: enterovirus type 70 (EV70); assay: Inhibition of EV70 cytopathogenic effect (CPE) in LLC-MK2 cells; format: cell-based; conditions: for IC50: Enterovirus D, * Virus CPE inhibition assay, LLC-MK2 cells, 33° C.
in vitro = conditions: monkey, llc-mk2 cells
[3] = test system: coxsackievirus type B4 (CB4); assay: Inhibition of CB4 cytopathogenic effect (CPE) in LLC-MK2 cells; format: cell-based; conditions: for CI CB4 (C)/(A): CI = CD50 (LLC-MK2)/IC50 (virus CPE); for IC50: Coxsackievirus, * Virus CPE inhibition assay, LLC-MK2 cells, 37° C.
[4] = test system: enterovirus type 70 (EV70); assay: Inhibition of EV70 plaque formation in LLC-MK2 cells; format: cell-based; conditions: for CI EV70 (C)/(A): CI = CD50 (LLC-MK2)/IC50 (plaque); for IC50: Enterovirus D, plaque reduction, LLC-MK2 cells, 33° C.
[5] = test system: poliovirus type 2 (Polio2); assay: microbe, parasite or virus in culture; format: cell-based; conditions: for CI Polio2 (C)/(A): CI = CD50 (LLC-MK2)/IC50 (plaque); for IC50: Enterovirus C, LLC-MK2, read-out: IC50 Polio2
[6] = test system: rhinovirus type 14 (HRV14); assay: Inhibition of HRV14 plaque formation in HeLa cells; format: cell-based; conditions: Enterovirus, HRV14; plaque reduction, HeLa cells, 33° C.

SMILES: CCCCCCCCn1c(CNc2ccncc2)nc2ccccc21 [XIX]
- CI CB4 (C)/(A) [1]: 24
- IC50 [1]: 14.8 µg/mL (≈ 44 µM)
- IC50 [2]: > 100 µg/mL
- CC50 (in vitro): 354 µg/mL (≈ 1050 µM)

SMILES: CCn1c(CNc2ccncc2)nc2ccccc21 [XI]
- CI CB4 (C)/(A) [1]: 1,768
- IC50 [1]: 3.2 µg/mL (≈ 12.7 µM)
- IC50 [2]: > 100 µg/mL
- CC50 (in vitro): 5660 µg/mL (≈ 22400 µM)

SMILES: CCn1c(CNc2ccncc2)nc2cc(C)ccc21 [XL, 1-ethyl-2-(4-pyridylaminomethyl)-5-methyl benzimidazole]
- IC50 [2]: > 100 µg/mL
- CI CB4 (C)/(A) [3]: > 2
- IC50 [3]: 56.2 µg/mL (≈ 211 µM)
- CC50 (in vitro): > 100 µg/mL

SMILES: CCCCn1c(CNc2ccncc2)nc2cc(C)ccc21 [XLII]
- CI EV70 (C)/(A) [4]: 240
- IC50 [4]: 5.9 µg/mL (≈ 20 µM)
- CI Polio2 (C)/(A) [5]: 51
- IC50 [5]: 27.6 µg/mL (≈ 93.7 µM)
- CI CB4 (C)/(A) [1]: 1,010
- IC50 [1]: 1.4 µg/mL (≈ 4.76 µM)
- IC50 [6]: > 50 µg/mL
- CC50 (in vitro): 1410 µg/mL (≈ 4800 µM)

SMILES: CCc1ccc2c(c1)nc(CNc1ccncc1)n2CC [XLI]
- IC50 [2]: > 100 µg/mL
- IC50 [3]: > 100 µg/mL
- CC50 (in vitro): > 100 µg/mL

SMILES: Clc1ccc2c(c1)nc(CNc1ccncc1)n2-c1ccccc1 [XLVI]
- CI EV70 (C)/(A) ([2]; CI = CD50 (LLC-MK2)/IC50 (virus CPE)): > 8
- IC50 [2]: 13.2 µg/mL (≈ 39.4 µM)
- CI CB4 (C)/(A) [3]: > 56
- IC50 [3]: 1.8 µg/mL (≈ 5.38 µM)
- CC50 (in vitro): > 100 µg/mL

SMILES: CCCCCCn1c(CNc2ccncc2)nc2ccccc21 [XVIII]
- CI EV70 (C)/(A) [4]: 16
- IC50 [4]: 44 µg/mL (≈ 143 µM)
- IC50 [5]: > 100 µg/mL
- CI CB4 (C)/(A) [1]: 544
- IC50 [1]: 1.3 µg/mL (≈ 4.21 µM)
- CC50 (in vitro): 707 µg/mL (≈ 2290 µM)

SMILES: c1ccc2c(c1)nc(CNc1ccncc1)n2C1CCCC1 [XVII]
- IC50 [6]: > 50 µg/mL
- IC50 [2]: > 100 µg/mL
- CI CB4 (C)/(A) [3]: > 253
- IC50 [3]: 5.6 µg/mL (≈ 19.2 µM)
- CC50 (in vitro): 1410 µg/mL (≈ 4840 µM)

SMILES: CCCCCn1c(CNc2ccncc2)nc2ccccc21 [XVI]
- CI EV70 (C)/(A) [4]: 643
- IC50 [4]: 2.2 µg/mL (≈ 7.47 µM)
- CI Polio2 (C)/(A) [5]: 74
- IC50 [5]: 19 µg/mL (≈ 64.5 µM)
- CI CB4 (C)/(A) [1]: > 2,828
- IC50 [1]: < 0.5 µg/mL
- IC50 [6]: > 50 µg/mL
- CC50 (in vitro): 1410 µg/mL (≈ 4800 µM)

SMILES: CCCCn1c(CNc2ccncc2)nc2ccccc21 [XV]
- CI EV70 (C)/(A) [4]: > 1,429
- IC50 [4]: 1.4 µg/mL (≈ 4.99 µM)
- CI Polio2 (C)/(A) [5]: > 625
- IC50 [5]: 3.2 µg/mL (≈ 11.4 µM)
- CI CB4 (C)/(A) [1]: > 5,405
- IC50 [1]: 0.37 µg/mL (≈ 1.32 µM)
- IC50 [6]: > 50 µg/mL
- CC50 (in vitro): > 2000 µg/mL

SMILES: Fc1ccc(-n2c(CNc3ccncc3)nc3ccccc32)cc1 [XXIII]
- CI EV70 (C)/(A) [4]: > 1,818
- IC50 [4]: 1.1 µg/mL (≈ 3.46 µM)
- CI Polio2 (C)/(A) [5]: > 256
- IC50 [5]: 7.8 µg/mL (≈ 24.5 µM)
- CI CB4 (C)/(A) [1]: > 2,410
- IC50 [1]: 0.83 µg/mL (≈ 2.61 µM)
- IC50 [6]: 30 µg/mL (≈ 94.2 µM)
- CC50 (in vitro): > 2000 µg/mL

SMILES: Cc1ccc(-n2c(CNc3ccncc3)nc3ccccc32)cc1 [XXII]
- CI EV70 (C)/(A) [4]: 2,719
- IC50 [4]: 0.52 µg/mL (≈ 1.65 µM)
- IC50 [5]: > 10 µg/mL
- CI CB4 (C)/(A) [1]: 2,946
- IC50 [1]: 0.48 µg/mL (≈ 1.53 µM)
- IC50 [6]: 38 µg/mL (≈ 121 µM)
- CC50 (in vitro): 1410 µg/mL (≈ 4500 µM)

SMILES: c1ccc(Cn2c(CNc3ccncc3)nc3ccccc32)cc1 [XXIV, 1-benzyl-2-(4-pyridylaminomethyl)benzimidazole]
- IC50 [6]: > 50 µg/mL
- IC50 [2]: > 100 µg/mL
- CI CB4 (C)/(A) [3]: > 36
- IC50 [3]: 56.2 µg/mL (≈ 179 µM)
- CC50 (in vitro): > 2000 µg/mL

SMILES: c1ccc(-n2c(CNc3ccncc3)nc3ccccc32)cc1 [XXI]
- CI EV70 (C)/(A) [4]: 943
- IC50 [4]: 1.5 µg/mL (≈ 4.99 µM)
- CI Polio2 (C)/(A) [5]: 29
- IC50 [5]: 48 µg/mL (≈ 160 µM)
- CI CB4 (C)/(A) [1]: 943
- IC50 [1]: 1.5 µg/mL (≈ 4.99 µM)
- IC50 [6]: > 50 µg/mL
- CC50 (in vitro): 1410 µg/mL (≈ 4710 µM)

SMILES: CCc1cc2[nH]c(CNc3ccncc3)nc2cc1Br [XXXI, 2-(4-pyridylaminomethyl)-5(6)-ethyl-6(5)-bromobenzimidazole]
- CI EV70 (C)/(A) [4]: 74
- IC50 [4]: 1.2 µg/mL (≈ 3.62 µM)
- CI Polio2 (C)/(A) [5]: 1
- IC50 [5]: 82 µg/mL (≈ 248 µM)
- IC50 [1]: > 10 µg/mL
- IC50 [6]: 1.4 µg/mL (≈ 4.23 µM)
- CC50 (in vitro): 88.4 µg/mL (≈ 267 µM)

SMILES: CCc1cc2nc(CNc3ccncc3)[nH]c2cc1Cl [XXXII]
- CI EV70 (C)/(A) [4]: 134
- IC50 [4]: 0.66 µg/mL (≈ 2.3 µM)
- CI Polio2 (C)/(A) [5]: 3
- IC50 [5]: 35 µg/mL (≈ 122 µM)
- CI CB4 (C)/(A) [1]: 7
- IC50 [1]: 12.5 µg/mL (≈ 43.6 µM)
- IC50 [6]: < 1 µg/mL
- CC50 (in vitro): 88.4 µg/mL (≈ 308 µM)

SMILES: COc1cc2nc(CNc3ccncc3)[nH]c2cc1OC [XXXIV]
- IC50 [2]: > 100 µg/mL
- CC50 (in vitro): > 100 µg/mL

SMILES: Cn1c(CNc2ccncc2)nc2ccc(Cl)cc21 [XXXIX]
- CI EV70 (C)/(A) [4]: > 2
- IC50 [4]: 50 µg/mL (≈ 183 µM)
- IC50 [5]: > 100 µg/mL
- CI CB4 (C)/(A) [1]: > 1
- IC50 [1]: 82 µg/mL (≈ 301 µM)
- IC50 [6]: > 50 µg/mL
- CC50 (in vitro): > 100 µg/mL

SMILES: Cc1ccc2c(c1)nc(CNc1ccncc1)n2C [XXXVI]
- IC50 [2]: > 100 µg/mL
- CC50 (in vitro): > 100 µg/mL

SMILES: Fc1cc2nc(CNc3ccncc3)[nH]c2cc1Cl [XXXV]
- CI EV70 (C)/(A) [4]: > 15
- IC50 [4]: 6.8 µg/mL (≈ 24.6 µM)
- IC50 [5]: > 100 µg/mL
- CI CB4 (C)/(A) [1]: > 3
- IC50 [1]: 34 µg/mL (≈ 123 µM)
- IC50 [6]: 15.5 µg/mL (≈ 56 µM)
- CC50 (in vitro): > 100 µg/mL

SMILES: Cc1cc2nc(CNc3ccncc3)[nH]c2cc1F [XXX]
- CI EV70 (C)/(A) [4]: > 8
- IC50 [4]: 12 µg/mL (≈ 46.8 µM)
- IC50 [5]: > 100 µg/mL
- IC50 [1]: > 50 µg/mL
- IC50 [6]: 8.6 µg/mL (≈ 33.6 µM)
- CC50 (in vitro): > 100 µg/mL

SMILES: OCCn1c(CNc2ccncc2)nc2ccccc21 [XX]
- IC50 [1]: > 100 µg/mL
- IC50 [2]: > 100 µg/mL
- CC50 (in vitro): > 2000 µg/mL

SMILES: Cn1c(CNc2ccncc2)nc2ccccc21 [X]
- CI EV70 (C)/(A) [4]: > 30
- IC50 [4]: 33 µg/mL (≈ 138 µM)
- CI Polio2 (C)/(A) [5]: > 6
- IC50 [5]: 170 µg/mL (≈ 713 µM)
- CI CB4 (C)/(A) [1]: > 31
- IC50 [1]: 32 µg/mL (≈ 134 µM)
- IC50 [6]: > 100 µg/mL
- CC50 (in vitro): > 1000 µg/mL
